Results reported in patent publication US9120820B2, “Fluorescent molecular probes for use in assays that measure test compound competitive binding with SAM-utilizing proteins” (CAYMAN CHEMICAL COMPANY, INCORPORATED, priority 2011, dated 2015).
Where “and” joins values, the source holds several entries; their conditions need not be identical. Identical values can stand only once. Like-named read-outs stand apart in the source and are kept apart here.

How the values were obtained:
GLP = biological target: T1, GLP (Homo sapiens, UniProt Q9H9B1); assay: Radiometric methyltransferase assay, GLP; assay type: biochemical; conditions: GLP 10 nM; compound 10 μM, 1 μM, or 0.1 μM; FIG. 13
T1 sequence (Q9H9B1 1-1298): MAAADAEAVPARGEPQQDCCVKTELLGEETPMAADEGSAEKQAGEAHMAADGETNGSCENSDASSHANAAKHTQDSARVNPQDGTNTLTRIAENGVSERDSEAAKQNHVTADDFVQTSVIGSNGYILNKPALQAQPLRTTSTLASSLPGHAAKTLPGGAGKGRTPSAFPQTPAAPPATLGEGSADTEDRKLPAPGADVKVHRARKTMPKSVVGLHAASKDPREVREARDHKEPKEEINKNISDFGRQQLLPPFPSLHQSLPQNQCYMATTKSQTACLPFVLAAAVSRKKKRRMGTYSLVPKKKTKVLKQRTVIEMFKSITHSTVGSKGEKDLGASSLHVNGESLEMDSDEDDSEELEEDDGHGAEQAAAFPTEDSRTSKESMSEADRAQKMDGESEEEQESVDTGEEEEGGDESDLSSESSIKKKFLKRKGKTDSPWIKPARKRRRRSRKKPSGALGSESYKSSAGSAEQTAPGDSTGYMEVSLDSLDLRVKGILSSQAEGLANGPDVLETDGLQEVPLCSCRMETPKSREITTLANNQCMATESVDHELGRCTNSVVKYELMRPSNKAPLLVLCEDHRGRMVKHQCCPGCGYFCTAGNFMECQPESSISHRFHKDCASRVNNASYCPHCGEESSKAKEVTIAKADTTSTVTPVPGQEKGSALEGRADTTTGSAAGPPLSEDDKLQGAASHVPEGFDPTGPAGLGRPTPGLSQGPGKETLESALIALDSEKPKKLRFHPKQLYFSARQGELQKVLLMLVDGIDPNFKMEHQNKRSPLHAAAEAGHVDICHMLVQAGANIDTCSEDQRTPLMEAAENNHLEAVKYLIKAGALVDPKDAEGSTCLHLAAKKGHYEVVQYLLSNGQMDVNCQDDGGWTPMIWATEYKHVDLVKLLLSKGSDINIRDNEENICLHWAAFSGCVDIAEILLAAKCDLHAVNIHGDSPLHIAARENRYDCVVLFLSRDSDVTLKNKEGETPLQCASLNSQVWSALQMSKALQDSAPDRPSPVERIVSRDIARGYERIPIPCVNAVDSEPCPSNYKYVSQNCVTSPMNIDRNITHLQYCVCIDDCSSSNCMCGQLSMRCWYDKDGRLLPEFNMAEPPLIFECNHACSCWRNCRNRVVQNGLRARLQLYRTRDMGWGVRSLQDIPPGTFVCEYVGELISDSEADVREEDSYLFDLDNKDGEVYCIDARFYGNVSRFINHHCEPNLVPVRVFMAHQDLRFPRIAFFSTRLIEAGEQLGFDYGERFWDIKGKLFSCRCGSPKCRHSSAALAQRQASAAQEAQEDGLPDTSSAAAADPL
Experimental: Reagents: Compound 16A was prepared by the method described in Example 4 and illustrated in FIG. 5. The Compounds 20A-iv and 20A-iii were prepared according to methods described in Example 6 and illustrated in FIG. 7. Enzymes were obtained from the Cayman Catalog with the exception of PRMT4 and PRMT6, which were produced in baculovirus and purified to near homogeneity using Ni-affinity chromatography. Human core histones were purified from HeLa nuclear pellet per the method of Coté et al. S-adenosylmethionine (SAM) was obtained from Sigma-Aldrich (Cat #A7007) and S-[methyl-3H]-SAM was obtained from Perkin-Elmer ([…]). Methods: […] To this was added enzyme diluted to provide a final assay concentration (GLP: 10 nM; PRMT1: 100 nM; SET7/9: 120 nM; PRDM9: 120 nM; PRMT4: 150 nM; PRMT6: 120 nM; G9a: 200 nM) and the compound was allowed to preincubate for 10 minutes at room temperature. […] Samples were mixed immediately after quenching and transferred to a 96-well GFC Uni-Filter microtiter filter plate (Perkin Elmer, Cat#6005174) that contained 50 μl of 20% TCA. Samples were allowed to precipitate for at least 5 minutes at room temperature. The samples were filtered onto the GFC membrane and washed four times with 100 μl of 10% TCA and once with 100 μl of 95% EtOH. To each well was added 25 μl of MicroScint-20 (Perkin-Elmer Cat#6013621) and samples were analyzed using a TopCount NXT microplate scintillation counter. The experiment was performed one time in duplicate for all compound concentrations tested and in triplicate for the vehicle and no enzyme controls. All data was analyzed in GraphPad Prism (v. 5.04).

SET7/9 = biological target: T2, SET7/9 (Homo sapiens, UniProt Q8WTS6); assay: Fluorescence polarization saturation binding of fluorescent probe to SET7/9
T2 construct: purchased Cayman 10320
T2 sequence (Q8WTS6 1-366): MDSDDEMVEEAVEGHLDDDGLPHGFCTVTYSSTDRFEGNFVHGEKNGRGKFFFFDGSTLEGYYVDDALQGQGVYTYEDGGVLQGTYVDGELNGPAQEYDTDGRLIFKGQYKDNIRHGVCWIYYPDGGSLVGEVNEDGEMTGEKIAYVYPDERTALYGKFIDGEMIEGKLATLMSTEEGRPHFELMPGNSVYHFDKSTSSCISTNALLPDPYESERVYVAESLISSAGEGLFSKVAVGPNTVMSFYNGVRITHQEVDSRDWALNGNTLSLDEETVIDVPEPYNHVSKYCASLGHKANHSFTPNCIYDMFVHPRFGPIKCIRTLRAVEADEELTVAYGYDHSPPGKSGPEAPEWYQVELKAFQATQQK
Experimental: Methods: The experiment was performed once, with two replicate wells for all methyltransferases per condition. The sole exception to this is NSD2 (see details below). The assay was performed in a ½ area, black, 96-well plate (Corning #3686) in a final volume of 30 μL. Methyltransferases (Table 1) were serially diluted two-fold in FP buffer (Cayman Catalog #600028) and 15 μL of a given dilution were added per well to the assay plate. Fifteen microliters of sinefungin probe 1A (10 nM) were added to each well, giving a final sinefungin probe 1A concentration of 5 nM. This concentration of sinefungin probe 1A was chosen because it had at least a 10-fold increase in fluorescence (excitation max 575 nm/emission max 615 nm) over background (buffer). The mixture was incubated in the dark at room temperature for 30 minutes and its fluorescence polarization was read using a BioTek Synergy 4.

PRDM9 = biological target: T3, PRDM9 (Homo sapiens, UniProt Q9NQV7); assay: Fluorescence polarization saturation binding of fluorescent probe to PRDM9; conditions: saturation-binding format, mean ± SEM, read-out: Sinefungin Probe 1A Affinity
T3 construct: purchased Cayman
Experimental: (§1) Sinefungin Probe 1A was tested for the ability to bind to 16 proteins, including several non-methlytransferase protein controls (Table 2). This probe binds to 4 methyltransferases (SET7/9, G9a, GLP, MLL) with Kd values <2 μM.

Sumo = assay: Fluorescence polarization saturation binding of fluorescent probe to Sumo (control protein); conditions: saturation-binding format, read-out: Sinefungin Probe 1A Affinity
Experimental: as §1

T3 sequence (Q9NQV7 whole entry, species assumed): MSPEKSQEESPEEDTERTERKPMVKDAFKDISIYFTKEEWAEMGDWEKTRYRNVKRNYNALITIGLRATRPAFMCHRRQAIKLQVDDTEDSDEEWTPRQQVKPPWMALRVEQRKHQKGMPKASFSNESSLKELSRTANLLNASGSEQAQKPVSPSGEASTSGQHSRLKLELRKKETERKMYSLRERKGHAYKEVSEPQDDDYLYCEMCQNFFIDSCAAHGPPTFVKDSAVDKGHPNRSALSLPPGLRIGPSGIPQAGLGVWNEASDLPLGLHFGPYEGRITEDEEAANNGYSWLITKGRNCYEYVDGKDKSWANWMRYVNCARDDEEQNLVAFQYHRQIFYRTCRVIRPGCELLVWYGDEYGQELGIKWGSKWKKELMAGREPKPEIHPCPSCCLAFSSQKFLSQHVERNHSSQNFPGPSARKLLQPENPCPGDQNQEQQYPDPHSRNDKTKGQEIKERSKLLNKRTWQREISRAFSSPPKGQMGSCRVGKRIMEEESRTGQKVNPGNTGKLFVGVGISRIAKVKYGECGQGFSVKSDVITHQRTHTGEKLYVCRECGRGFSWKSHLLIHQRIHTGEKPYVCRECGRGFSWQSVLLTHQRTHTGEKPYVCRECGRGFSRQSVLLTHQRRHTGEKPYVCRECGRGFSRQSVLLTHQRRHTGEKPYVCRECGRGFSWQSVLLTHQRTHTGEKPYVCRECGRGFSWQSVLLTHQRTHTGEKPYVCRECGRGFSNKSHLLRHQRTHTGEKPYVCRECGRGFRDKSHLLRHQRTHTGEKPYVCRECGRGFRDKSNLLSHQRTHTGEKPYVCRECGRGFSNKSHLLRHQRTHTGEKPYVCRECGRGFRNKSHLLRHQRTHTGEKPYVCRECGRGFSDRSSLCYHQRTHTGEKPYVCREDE

Structure (SMILES)	inhibition of enzymatic activity (GLP)	Kd (SET7/9; Example 8, SET7/9, 5 nM probe, experiment performed once, FIG. 2, read-out: Kd)	Kd (SET7/9; SET7/9, saturation-binding format, mean ± SEM, at least two independent experiments, read-out: Sinefungin Probe 1A Affinity)	Kd (PRDM9)	Kd (Sumo)
CSC[C@H]1O[C@@H](n2cnc3c(N)nc(NCCNC(=O)OC(C)(C)C)nc32)[C@H](O)[C@@H]1O [Compound 16A, tert-butyl (2-((6-amino-9-((2R,3R,4S,5S)-3,4-dihydroxy-5-((methylthio)methyl)tetrahydrofuran-2-yl)-9H-purin-2-yl)amino)ethyl)carbamate]	not dramatically altering the activity				
CCNC(=O)[C@H]1O[C@@H](n2cnc3c(N)nc(Cl)nc32)[C@H](O)[C@@H]1O [Compound 20A-iii, 2-chloroadenosine-5′-N-ethylcarboxamide]	did not show appreciable inhibition				
CCNC[C@H]1O[C@@H](n2cnc3c(N)nc(Cl)nc32)[C@H](O)[C@@H]1O [Compound 20A-iv, 2-chloroadenosine-5′-N-ethylamine]	did not show appreciable inhibition				
Nc1ncnc2c1ncn2[C@@H]1O[C@H](C[C@@H](N)CC[C@H](N)C(=O)O)[C@@H](OCc2cnnn2CCCCCCNC(=O)OC2CCN(C(=O)c3ccccc3C3=c4cc5c6c(c4Oc4c3cc3c7c4CCCN7CCC3)CCC[N+]=6CCC5)CC2)[C@H]1O [Sinefungin Probe 1A]		17 nM	< 2000 nM and 27 nM	2600 ± 600 nM	> 10000 nM
